# Test results: patent publication US9670214B2, “Small molecule myristate inhibitors of Bcr-abl and methods of use” (DANA-FARBER CANCER INSTITUTE, INC., priority 2007, dated 2017)
# Tested on: Ba/F3 cells (IL-3 dependent murine pro-B cell line)
# Assay: Proliferation assay (MTT), parental Ba/F3 cells
# Assay type: cell-based
# Details: Mus musculus, 48 h, drug concentrations 0.005-10 μM, read-out: BaF3
# Protocol: Interleukin-3 (IL-3) dependent murine pro-B cell line, Ba/F3, and murine myeloid precursor cell line, 32D, were maintained in RPMI-1640 medium supplemented with L-Glutamine, 10% FBS and 10 U/ml recombinant murine IL-3 (Roche). Mo7e human megakarioblastic cell line was grown in RPMI-1640 medium supplemented with L-Glutamine, 20% FBS and 5 ng/ml recombinant human granulocyte macrophage cell stimulating factor (GM-CSF) (R&D Systems) or 200 ng/ml stem cell factor (SCF) (Biosource).
# Cells (0.3-0.6×10^6/ml) were plated in duplicate or triplicate in 96-well plates containing increasing drug concentrations (0.005-10 μM). After incubation at 37° C. in 5% CO2 for 48 h, the effect of the compounds on cell viability was determined by MTT (Promega) colorimetric dye reduction method. Inhibition of cell proliferation was calculated as a percentage of growth of DMSO treated cells, and IC50 values were determined with Microsoft Excel XLfit3.
row,SMILES,IC50
1,FC(F)(F)Oc1ccc(Nc2ncnc3[nH]ncc23)cc1,> 10 µM
2,CCn1ncc2c(Nc3ccc(OC(F)(F)F)cc3)ncnc21,> 10 µM
3,CCn1cc2c(Nc3ccc(OC(F)(F)F)cc3)ncnc2n1,> 10 µM
4,CCS(=O)(=O)n1ncc2c(Nc3ccc(OC(F)(F)F)cc3)ncnc21,7 µM
5,FC(F)(F)Oc1ccc(Nc2ncnc3c2cnn3C2CCCCC2)cc1,9.3 µM
6,FC(F)(F)Oc1ccc(Nc2ncnc3nn(C4CCCCC4)cc23)cc1,> 10 µM
7,NC(=O)Cn1ncc2c(Nc3ccc(OC(F)(F)F)cc3)ncnc21,> 10 µM
8,NC(=O)Cn1cc2c(Nc3ccc(OC(F)(F)F)cc3)ncnc2n1,> 3.3 µM
9,NC(=O)CCn1ncc2c(Nc3ccc(OC(F)(F)F)cc3)ncnc21,8.7 µM
10,FC(F)(F)Oc1ccc(Nc2ncnc3c2cnn3CC2CCOC2)cc1 (centres unmarked),> 10 µM
11,FC(F)(F)Oc1ccc(Nc2ncnc3nn(CC4CCOC4)cc23)cc1 (centres unmarked),> 10 µM
12,CN(C)CC(C#N)n1ncc2c(Nc3ccc(OC(F)(F)F)cc3)ncnc21 (centres unmarked),> 10 µM
13,CCCCn1ncc2c(Nc3ccc(OC(F)(F)F)cc3)ncnc21,6.6 µM
14,CCCCn1cc2c(Nc3ccc(OC(F)(F)F)cc3)ncnc2n1,> 10 µM
15,CC(C)(C)n1ncc2c(Nc3ccc(OC(F)(F)F)cc3)ncnc21,7.3 µM
16,FC(F)(F)Cn1ncc2c(Nc3ccc(OC(F)(F)F)cc3)ncnc21,> 10 µM
17,FC(F)(F)Cn1cc2c(Nc3ccc(OC(F)(F)F)cc3)ncnc2n1,8 µM
18,FC(F)(F)Oc1ccc(Nc2ncnc3c2cnn3Cc2ccccc2)cc1,> 10 µM
19,FC(F)(F)Oc1ccc(Nc2ncnc3nn(Cc4ccccc4)cc23)cc1,> 10 µM
20,FC(F)(F)Oc1ccc(Nc2ncnc3c2cnn3CCc2ccccc2)cc1,> 10 µM
21,FC(F)(F)Oc1ccc(Nc2ncnc3nn(CCc4ccccc4)cc23)cc1,> 10 µM
22,Fc1cc(Cn2cc3c(Nc4ccc(OC(F)(F)F)cc4)ncnc3n2)ccc1C(F)(F)F,4.6 µM

row,SMILES,IC50
1,FC(F)(F)Oc1ccc(Nc2ncnc3nn(Cc4cccc(Br)c4)cc23)cc1,> 10 µM
2,Oc1cccc(Cn2cc3c(Nc4ccc(OC(F)(F)F)cc4)ncnc3n2)c1,6.9 µM
3,FC(F)(F)Oc1ccc(Nc2ncnc3nn(Cc4cccnc4)cc23)cc1,2.1 µM
4,FC(F)(F)Oc1ccc(Nc2ncnc3c2cnn3Cc2ccccn2)cc1,> 10 µM
5,FC(F)(F)Oc1ccc(Nc2ncnc3c2cnn3Cc2ccncc2)cc1,> 10 µM
6,O=C1c2ccccc2C(=O)N1CCn1ncc2c(Nc3ccc(OC(F)(F)F)cc3)ncnc21,> 10 µM
7,NCCn1ncc2c(Nc3ccc(OC(F)(F)F)cc3)ncnc21,> 10 µM
8,FC(F)(F)Oc1ccc(Nc2ncnc3c2cnn3-c2cc(C(F)(F)F)ccn2)cc1,> 10 µM
9,FC(F)(F)Oc1ccc(Nc2ncnc3nn(-c4cc(C(F)(F)F)ccn4)cc23)cc1,> 10 µM
10,Cc1cccc(-n2ncc3c(Nc4ccc(OC(F)(F)F)cc4)ncnc32)c1C,> 10 µM
11,Cc1cccc(-n2cc3c(Nc4ccc(OC(F)(F)F)cc4)ncnc3n2)c1C,> 10 µM
12,Fc1ccccc1-n1ncc2c(Nc3ccc(OC(F)(F)F)cc3)ncnc21,> 10 µM
13,Fc1ccccc1-n1cc2c(Nc3ccc(OC(F)(F)F)cc3)ncnc2n1,> 10 µM
14,FC(F)(F)Oc1ccc(Nc2ncnc3c2cnn3-c2ccc(Cl)cc2Cl)cc1,> 10 µM
15,FC(F)(F)Oc1ccc(Nc2ncnc3nn(-c4ccc(Cl)cc4Cl)cc23)cc1,> 10 µM
16,CCc1ccccc1-n1ncc2c(Nc3ccc(OC(F)(F)F)cc3)ncnc21,> 10 µM
17,CCc1ccccc1-n1cc2c(Nc3ccc(OC(F)(F)F)cc3)ncnc2n1,> 10 µM
18,NS(=O)(=O)c1cccc(-n2ncc3c(Nc4ccc(OC(F)(F)F)cc4)ncnc32)c1,1.8 µM
19,Cn1cnc2ncnc(Nc3ccc(OC(F)(F)F)cc3)c21,> 10 µM
20,OC[C@H]1OC(n2cnc3c(Nc4ccc(OC(F)(F)F)cc4)ncnc32)[C@H](O)[C@@H]1O (some centres unmarked),> 10 µM
21,FC(F)(F)Oc1ccc(Nc2ncnc3c2ncn3CCN2CCOCC2)cc1,> 10 µM
22,OCCn1ccc2c(Nc3ccc(OC(F)(F)F)cc3)ncnc21,> 10 µM
